#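 1) Cells in 96-well plates. 2) Compound, 48 h, 5 concentrations. 3) Linear interpolation between surrounding doses. 4) Unreached endpoint = highest concentration. The concentration for 50% growth inhibition is given as GI50. TGI marks complete inhibition of growth.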
# How the values were obtained:
# Assay in all cases: NCI tumour cell line growth inhibition, 48 h
# CCRF-CEM leukemia = tested on: CCRF-CEM leukemia
# HT29 colon = tested on: HT29 colon
# RPMI-8226 leukemia = tested on: RPMI-8226 leukemia
# OVCAR-3 ovarian = tested on: OVCAR-3 ovarian
# MALME-3M melanoma = tested on: MALME-3M melanoma
# OVCAR-8 ovarian = tested on: OVCAR-8 ovarian
# A498 renal = tested on: A498 renal
# IGROV1 ovarian = tested on: IGROV1 ovarian
# EKVX NSCLC = tested on: EKVX NSCLC
# M14 melanoma = tested on: M14 melanoma
# HS 578T breast = tested on: HS 578T breast
# SF-539 CNS = tested on: SF-539 CNS
# HCC-2998 colon = tested on: HCC-2998 colon
# MDA-MB-435 = tested on: MDA-MB-435
# SR leukemia = tested on: SR leukemia
# OVCAR-5 ovarian = tested on: OVCAR-5 ovarian
# RXF 393 renal = tested on: RXF 393 renal
# LOX IMVI melanoma = tested on: LOX IMVI melanoma
# SF-268 CNS = tested on: SF-268 CNS
# NCI-H522 lung = tested on: NCI-H522 lung
# HL-60(TB) leukemia = tested on: HL-60(TB) leukemia
# COLO 205 colon = tested on: COLO 205 colon
# OVCAR-4 ovarian = tested on: OVCAR-4 ovarian
# NCI-H226 lung = tested on: NCI-H226 lung
# SF-295 CNS = tested on: SF-295 CNS
# UO-31 renal = tested on: UO-31 renal
# NCI/ADR-RES ovarian = tested on: NCI/ADR-RES ovarian
# SK-OV-3 ovarian = tested on: SK-OV-3 ovarian
# HCT-15 colon = tested on: HCT-15 colon
# UACC-257 melanoma = tested on: UACC-257 melanoma
# SK-MEL-28 melanoma = tested on: SK-MEL-28 melanoma
# MOLT-4 leukemia = tested on: MOLT-4 leukemia
# CAKI-1 renal = tested on: CAKI-1 renal
# TK-10 renal = tested on: TK-10 renal
# MDA-MB-231 breast = tested on: MDA-MB-231 breast
# MCF7 breast = tested on: MCF7 breast
# PC-3 prostate = tested on: PC-3 prostate
# HOP-62 NSCLC = tested on: HOP-62 NSCLC
# SNB-19 CNS = tested on: SNB-19 CNS
# MDA-MB-468 breast = tested on: MDA-MB-468 breast
# NCI-H460 lung = tested on: NCI-H460 lung
# U251 CNS = tested on: U251 CNS
# SK-MEL-5 melanoma = tested on: SK-MEL-5 melanoma
# HOP-92 NSCLC = tested on: HOP-92 NSCLC
# UACC-62 melanoma = tested on: UACC-62 melanoma
# A549 NSCLC = tested on: A549 NSCLC
# DU-145 prostate = tested on: DU-145 prostate
# HCT-116 colon = tested on: HCT-116 colon
# SNB-75 CNS = tested on: SNB-75 CNS
# SN12C renal = tested on: SN12C renal
# NCI-H23 lung = tested on: NCI-H23 lung
# ACHN renal = tested on: ACHN renal
# BT-549 breast = tested on: BT-549 breast
# SK-MEL-2 melanoma = tested on: SK-MEL-2 melanoma
# 786-0 renal = tested on: 786-0 renal
smiles,measurement,setting,value
COc1ccc2c(c1)c(-c1cc(N)n3nc(-c4c[nH]c5ccccc45)cc3n1)cn2C,GI50,CCRF-CEM leukemia,2.14 µM
same,TGI,CCRF-CEM leukemia,5.42 µM
same,GI50,HT29 colon,1.77 µM
same,TGI,HT29 colon,3.47 µM
same,GI50,RPMI-8226 leukemia,2.37 µM
same,TGI,RPMI-8226 leukemia,5.74 µM
same,GI50,OVCAR-3 ovarian,2.02 µM
same,TGI,OVCAR-3 ovarian,4.28 µM
same,GI50,MALME-3M melanoma,1.79 µM
same,TGI,MALME-3M melanoma,3.18 µM
same,GI50,OVCAR-8 ovarian,2.05 µM
same,TGI,OVCAR-8 ovarian,4.77 µM
same,GI50,A498 renal,14 µM
same,TGI,A498 renal,27.6 µM
same,GI50,IGROV1 ovarian,2.03 µM
same,TGI,IGROV1 ovarian,3.88 µM
same,GI50,EKVX NSCLC,1.7 µM
same,TGI,EKVX NSCLC,3.63 µM
same,GI50,M14 melanoma,1.72 µM
same,TGI,M14 melanoma,3.25 µM
same,GI50,HS 578T breast,3.11 µM
same,TGI,HS 578T breast,17.6 µM
same,GI50,SF-539 CNS,1.63 µM
same,TGI,SF-539 CNS,2.98 µM
same,GI50,HCC-2998 colon,1.63 µM
same,TGI,HCC-2998 colon,3.04 µM
same,GI50,MDA-MB-435,1.83 µM
same,TGI,MDA-MB-435,3.54 µM
same,GI50,SR leukemia,1.43 µM
same,TGI,SR leukemia,6.4 µM
same,GI50,OVCAR-5 ovarian,2.05 µM
same,TGI,OVCAR-5 ovarian,4.08 µM
same,GI50,RXF 393 renal,1.5 µM
same,TGI,RXF 393 renal,2.9 µM
same,GI50,LOX IMVI melanoma,1.68 µM
same,TGI,LOX IMVI melanoma,3.04 µM
same,GI50,SF-268 CNS,2.35 µM
same,TGI,SF-268 CNS,5.48 µM
same,GI50,NCI-H522 lung,1.78 µM
same,TGI,NCI-H522 lung,3.5 µM
same,GI50,HL-60(TB) leukemia,1.76 µM
same,TGI,HL-60(TB) leukemia,3.78 µM
same,GI50,COLO 205 colon,2.02 µM
same,TGI,COLO 205 colon,3.83 µM
same,GI50,OVCAR-4 ovarian,2.42 µM
same,TGI,OVCAR-4 ovarian,5.93 µM
same,GI50,NCI-H226 lung,2.13 µM
same,TGI,NCI-H226 lung,5.11 µM
same,GI50,SF-295 CNS,1.58 µM
same,TGI,SF-295 CNS,3.01 µM
same,GI50,UO-31 renal,1.61 µM
same,TGI,UO-31 renal,3.12 µM
same,GI50,NCI/ADR-RES ovarian,2.08 µM
same,TGI,NCI/ADR-RES ovarian,5.07 µM
same,GI50,SK-OV-3 ovarian,2.58 µM
same,TGI,SK-OV-3 ovarian,6.43 µM
same,GI50,HCT-15 colon,1.31 µM
same,TGI,HCT-15 colon,2.75 µM
same,GI50,UACC-257 melanoma,1.84 µM
same,TGI,UACC-257 melanoma,3.43 µM
same,GI50,SK-MEL-28 melanoma,1.73 µM
same,TGI,SK-MEL-28 melanoma,3.11 µM
same,GI50,MOLT-4 leukemia,2.05 µM
same,TGI,MOLT-4 leukemia,5.73 µM
same,GI50,CAKI-1 renal,1.82 µM
same,TGI,CAKI-1 renal,3.52 µM
same,GI50,TK-10 renal,1.76 µM
same,TGI,TK-10 renal,3.34 µM
same,GI50,MDA-MB-231 breast,2.07 µM
same,TGI,MDA-MB-231 breast,3.65 µM
same,GI50,MCF7 breast,1.68 µM
same,TGI,MCF7 breast,3.35 µM
same,GI50,PC-3 prostate,2.56 µM
same,TGI,PC-3 prostate,8.61 µM
same,GI50,HOP-62 NSCLC,2.02 µM
same,TGI,HOP-62 NSCLC,3.92 µM
same,GI50,SNB-19 CNS,2.61 µM
same,TGI,SNB-19 CNS,6.31 µM
same,GI50,MDA-MB-468 breast,1.36 µM
same,TGI,MDA-MB-468 breast,2.69 µM
same,GI50,NCI-H460 lung,2.23 µM
same,TGI,NCI-H460 lung,5.03 µM
same,GI50,U251 CNS,1.64 µM
same,TGI,U251 CNS,3.21 µM
same,GI50,SK-MEL-5 melanoma,1.68 µM
same,TGI,SK-MEL-5 melanoma,3.04 µM
same,GI50,HOP-92 NSCLC,1.87 µM
same,TGI,HOP-92 NSCLC,3.86 µM
same,GI50,UACC-62 melanoma,1.8 µM
same,TGI,UACC-62 melanoma,3.2 µM
same,GI50,A549 NSCLC,1.86 µM
same,TGI,A549 NSCLC,3.7 µM
same,GI50,DU-145 prostate,3.29 µM
same,TGI,DU-145 prostate,10.2 µM
same,GI50,HCT-116 colon,1.72 µM
same,TGI,HCT-116 colon,3.09 µM
same,GI50,SNB-75 CNS,1.76 µM
same,TGI,SNB-75 CNS,3.8 µM
same,GI50,SN12C renal,1.87 µM
same,TGI,SN12C renal,3.81 µM
same,GI50,NCI-H23 lung,1.72 µM
same,TGI,NCI-H23 lung,3.39 µM
same,GI50,ACHN renal,1.7 µM
same,TGI,ACHN renal,3.1 µM
same,GI50,BT-549 breast,12.8 µM
same,TGI,BT-549 breast,25.6 µM
same,GI50,SK-MEL-2 melanoma,1.86 µM
same,TGI,SK-MEL-2 melanoma,3.96 µM
same,GI50,786-0 renal,1.61 µM
same,TGI,786-0 renal,3 µM
Cc1nc2ccccc2nc1N=Nc1ccccc1,GI50,MDA-MB-468 breast,21 µM
same,TGI,MDA-MB-468 breast,> 100 µM
CN1CCN(c2nc(-c3csc(-c4cccs4)n3)cc3ccccc23)CC1,GI50,MDA-MB-468 breast,1.69 µM
same,TGI,MDA-MB-468 breast,3.39 µM
CN(CCC(=O)/C(=C\c1ccccc1)c1ccc(Cl)cc1)Cc1ccccc1,GI50,MDA-MB-468 breast,2.14 µM
same,TGI,MDA-MB-468 breast,5.96 µM
Cc1nc2sc(C(=O)c3ccc(Cl)cc3)c(N)c2c(-c2ccccc2Cl)c1C(=O)Nc1ccccc1,GI50,MDA-MB-468 breast,17.5 µM
same,TGI,MDA-MB-468 breast,37 µM
CC(C)(C)OC(=O)NCc1cccc(N=C=S)c1,GI50,MDA-MB-468 breast,14.8 µM
same,TGI,MDA-MB-468 breast,48.1 µM
CC(=O)/C=C/c1ccc(OCc2ccc(Cl)cc2)cc1,GI50,MDA-MB-468 breast,161 µM
same,TGI,MDA-MB-468 breast,872 µM
COc1ccc(NC2=C(Cl)C(=O)C(C)=C(C)C2=O)cc1,GI50,MDA-MB-468 breast,1.29 µM
same,TGI,MDA-MB-468 breast,2.75 µM
COCCOCCOCc1n(Cc2ccc3ccccc3n2)c2ccccc2[n+]1Cc1ccc2ccccc2n1,GI50,MDA-MB-468 breast,0.19 µM
same,TGI,MDA-MB-468 breast,2.25 µM
NC1(Cc2ccc(Cl)cc2)CCN(c2ncnc3[nH]ccc23)CC1,GI50,MDA-MB-468 breast,1.92 µM
same,TGI,MDA-MB-468 breast,12.8 µM
COc1ccc(CCN2CCC(CN(C)Cc3cnn(-c4ccccc4)c3)CC2)cc1,GI50,MDA-MB-468 breast,4.99 µM
same,TGI,MDA-MB-468 breast,21.3 µM
COC(=O)C(C(=O)OC)C(Br)C(Br)C(Br)c1ccccc1 (stereo not drawn),GI50,MDA-MB-468 breast,2.06 µM
same,TGI,MDA-MB-468 breast,6.18 µM
CC(C)C(=O)Nc1ccc(-c2nc(-c3cccc(O)c3)c(-c3ccnc(Br)c3)[nH]2)cc1,GI50,MDA-MB-468 breast,0.795 µM
same,TGI,MDA-MB-468 breast,2.74 µM
O=C1N(Cc2ccccc2Cl)c2ccccc2C12NN=C(c1cccc(Cl)c1)S2 (stereo not drawn),GI50,MDA-MB-468 breast,1.91 µM
same,TGI,MDA-MB-468 breast,3.77 µM
COc1cc(Cl)cc(-c2nn(-c3cccc(NC(=O)Nc4ccc(Cl)c(Cl)c4)c3)cc2-c2ccncc2)c1,GI50,MDA-MB-468 breast,1.74 µM
same,TGI,MDA-MB-468 breast,7.37 µM

# — PubChem BioAssay (NCI)
